According to paper PMC6943918 (The Biochemical journal, 2014):

Target: T1, ZmTenA_E (maize TenA_E, GRMZM2G080501) (Zea mays, UniProt B6TPF2)
T1 sequence (B6TPF2 1-224): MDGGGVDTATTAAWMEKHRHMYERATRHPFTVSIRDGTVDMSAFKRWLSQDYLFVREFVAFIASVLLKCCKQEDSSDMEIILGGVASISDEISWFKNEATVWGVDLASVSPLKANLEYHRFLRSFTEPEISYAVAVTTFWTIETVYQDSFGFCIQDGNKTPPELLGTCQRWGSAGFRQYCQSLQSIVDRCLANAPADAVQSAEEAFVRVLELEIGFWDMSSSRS
Assay: HPLC-UV
Type: biochemical
Conditions: amino-HMP aminohydrolase; 100 nmol substrate, 50 μg enzyme, 4 h, 30°C

Cc1ncc(CN)c(N)n1 [Amino-HMP, 4-amino-5-aminomethyl-2-methylpyrimidine]
HPLC-UV (235 nm) hydrolysis assay: both plant TenA_E proteins had some activity against amino-HMP
